Values of other authors, collected in PMC9516332 (Frontiers in Oncology, 2022).
Read-outs that look alike come from different tables or passages of the source.

Tests used:
Conditions in all cases: cited from earlier work
[1] = target: T1, panel of 255 wild-type kinases (Homo sapiens, UniProt P30530)
T1 sequence (P30530 26-894): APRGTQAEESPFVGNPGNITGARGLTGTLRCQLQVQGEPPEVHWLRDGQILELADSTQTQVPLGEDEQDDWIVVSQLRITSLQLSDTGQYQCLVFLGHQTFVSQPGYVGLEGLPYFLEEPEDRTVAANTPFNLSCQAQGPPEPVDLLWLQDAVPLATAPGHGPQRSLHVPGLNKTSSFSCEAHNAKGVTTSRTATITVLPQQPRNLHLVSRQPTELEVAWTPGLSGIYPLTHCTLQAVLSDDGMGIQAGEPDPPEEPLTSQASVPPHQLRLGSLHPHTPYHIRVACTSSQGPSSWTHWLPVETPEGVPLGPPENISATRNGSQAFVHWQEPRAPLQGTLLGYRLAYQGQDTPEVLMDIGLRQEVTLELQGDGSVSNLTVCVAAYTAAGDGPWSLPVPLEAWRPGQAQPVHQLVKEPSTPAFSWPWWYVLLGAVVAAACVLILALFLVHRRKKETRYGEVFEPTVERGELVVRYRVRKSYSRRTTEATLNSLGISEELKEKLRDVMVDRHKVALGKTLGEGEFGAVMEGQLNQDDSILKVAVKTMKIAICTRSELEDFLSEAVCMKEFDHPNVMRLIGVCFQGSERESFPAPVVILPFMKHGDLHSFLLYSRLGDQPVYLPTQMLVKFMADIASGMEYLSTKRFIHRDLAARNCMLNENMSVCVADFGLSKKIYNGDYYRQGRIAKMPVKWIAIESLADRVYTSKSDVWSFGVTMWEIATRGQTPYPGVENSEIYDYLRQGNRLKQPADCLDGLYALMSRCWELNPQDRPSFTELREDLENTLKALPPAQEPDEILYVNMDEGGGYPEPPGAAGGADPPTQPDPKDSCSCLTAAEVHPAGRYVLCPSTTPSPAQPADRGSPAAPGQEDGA

[2] = target: T2, panel of 255 wild-type kinases (Homo sapiens, UniProt P54762)
T2 sequence (P54762 18-984): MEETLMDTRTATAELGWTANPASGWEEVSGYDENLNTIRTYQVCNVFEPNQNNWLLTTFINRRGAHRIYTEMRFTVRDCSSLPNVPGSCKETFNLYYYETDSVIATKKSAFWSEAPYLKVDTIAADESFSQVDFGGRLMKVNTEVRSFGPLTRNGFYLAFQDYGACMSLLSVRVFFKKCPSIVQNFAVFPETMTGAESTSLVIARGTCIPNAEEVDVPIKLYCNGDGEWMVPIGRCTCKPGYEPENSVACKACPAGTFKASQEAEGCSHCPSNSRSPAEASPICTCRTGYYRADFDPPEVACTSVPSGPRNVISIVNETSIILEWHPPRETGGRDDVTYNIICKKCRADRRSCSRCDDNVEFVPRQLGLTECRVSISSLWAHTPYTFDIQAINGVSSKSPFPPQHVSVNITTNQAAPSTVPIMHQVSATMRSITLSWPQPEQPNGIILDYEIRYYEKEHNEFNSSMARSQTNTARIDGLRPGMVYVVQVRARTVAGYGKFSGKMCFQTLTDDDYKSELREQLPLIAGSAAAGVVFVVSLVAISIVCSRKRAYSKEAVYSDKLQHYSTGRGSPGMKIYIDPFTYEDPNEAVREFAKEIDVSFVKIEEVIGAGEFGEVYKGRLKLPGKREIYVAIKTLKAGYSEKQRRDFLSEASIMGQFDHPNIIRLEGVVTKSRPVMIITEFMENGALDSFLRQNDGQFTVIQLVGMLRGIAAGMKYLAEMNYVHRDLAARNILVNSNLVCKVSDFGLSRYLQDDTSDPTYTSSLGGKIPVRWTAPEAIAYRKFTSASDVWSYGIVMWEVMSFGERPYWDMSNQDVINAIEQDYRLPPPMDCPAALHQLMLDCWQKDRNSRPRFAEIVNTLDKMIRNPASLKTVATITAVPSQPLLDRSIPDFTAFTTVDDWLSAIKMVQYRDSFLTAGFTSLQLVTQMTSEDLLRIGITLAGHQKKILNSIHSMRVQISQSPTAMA

[3] = target: panel of 255 wild-type kinases (Homo sapiens, UniProt Q13554)
[4] = target: panel of 255 wild-type kinases (Homo sapiens, UniProt Q16539)
[5] = AXL kinase assay, 1 µmol/L single concentration, ref DOI: 10.1158/1535-7163.MCT-18-0877
[6] = kinase EPHB1, 1 µmol/L single concentration, ref DOI: 10.1158/1535-7163.MCT-18-0877
[7] = CaMK2β kinase assay, 1 µmol/L single concentration, ref DOI: 10.1158/1535-7163.MCT-18-0877
[8] = p38α, 1 µmol/L single concentration, ref DOI: 10.1158/1535-7163.MCT-18-0877
[9] = kinase EPHB1, 1 µmol/L single concentration, ref DOI: 10.1371/journal.pone.0092146
[10] = p38α, 1 µmol/L single concentration, ref DOI: 10.1371/journal.pone.0092146
[11] = AXL kinase assay, 1 µmol/L single concentration, ref DOI: 10.1371/journal.pone.0092146
[12] = CaMK2β kinase assay, 1 µmol/L single concentration, ref DOI: 10.1371/journal.pone.0092146

| SMILES | %-inhibition AXL [1, 5] [%] | %-inhibition at 1 µmol/L, EPHB1 [2, 6] [%] | %-inhibition CaMK2β [3, 7] [%] | %-inhibition, p38α [4, 8] [%] | %-inhibition at 1 µmol/L, EPHB1 [2, 9] [%] | other results |
| --- | --- | --- | --- | --- | --- | --- |
| O=C(c1ccc(F)c(F)c1Nc1ccc(I)cc1F)N1CC(O)([C@@H]2CCCCN2)C1 [cobimetinib] | 3 | 4 | -0.487 | -5.49 | – | – |
| CO[C@@H]1[C@H](N(C)C(=O)c2ccccc2)C[C@H]2O[C@]1(C)n1c3ccccc3c3c4c(c5c6ccccc6n2c5c31)C(=O)NC4 [midostaurin] | 87 | – | – | -1.38 | – | – |
| C=CC(=O)N1CCC[C@@H](n2nc(-c3ccc(Oc4ccccc4)cc3)c3c(N)ncnc32)C1 [ibrutinib] | 9 | 12 | -2.56 | -2.71 | – | – |
| C[C@@H](Oc1cc(-c2cnn(C3CCNCC3)c2)cnc1N)c1c(Cl)ccc(F)c1Cl [crizotinib] | – | – | – | – | 93 | %-inhibition, p38α [4, 10]: -2.27% |
| Cc1cc(Nc2ncc(Cl)c(Nc3ccccc3S(=O)(=O)C(C)C)n2)c(OC(C)C)cc1C1CCNCC1 [ceritinib] | 56 | 26 | 23 | 1.8 | – | – |
| CC(C)(C)c1nc(-c2cccc(NS(=O)(=O)c3c(F)cccc3F)c2F)c(-c2ccnc(N)n2)s1 [dabrafenib] | – | – | – | – | 12 | %-inhibition AXL [1, 11]: 30%; %-inhibition CaMK2β [3, 12]: -0.277% |
| C=CC(=O)Nc1cc(Nc2nccc(-c3cn(C)c4ccccc34)n2)c(OC)cc1N(C)CCN(C)C [osimertinib] | 43 | 13 | 5 | -6 | – | – |
| CC#CC(=O)N1CCC[C@H]1c1nc(-c2ccc(C(=O)Nc3ccccn3)cc2)c2c(N)nccn12 [acalabrutinib] | -0.457 | -1.4 | -1.09 | -0.752 | – | – |
| COc1cc(N2CCC(N3CCN(C)CC3)CC2)ccc1Nc1ncc(Cl)c(Nc2ccccc2P(C)(C)=O)n1 [brigatinib] | – | – | – | – | – | %-inhibition AXL [1]: 97%; %-inhibition at 1 µmol/L, EPHB1 [2]: 36%; %-inhibition CaMK2β [3]: 64%; %-inhibition, p38α [4]: -0.837% |
| CCCS(=O)(=O)Nc1ccc(F)c(C(=O)c2c[nH]c3ncc(-c4ccc(Cl)cc4)cc23)c1F [vemurafenib] | – | – | – | – | -1.63 | %-inhibition AXL [1, 11]: 20%; %-inhibition CaMK2β [3, 12]: -6.64%; %-inhibition, p38α [4, 10]: 10% |
| CCc1cc2c(cc1N1CCC(N3CCOCC3)CC1)C(C)(C)c1[nH]c3cc(C#N)ccc3c1C2=O [alectinib] | 59 | 21 | 2.14 | -0.471 | – | – |
| CC(=O)Nc1cccc(-n2c(=O)n(C3CC3)c(=O)c3c(Nc4ccc(I)cc4F)n(C)c(=O)c(C)c32)c1 [trametinib] | – | – | – | – | -8 | %-inhibition AXL [1, 11]: -1.12%; %-inhibition CaMK2β [3, 12]: 0.738%; %-inhibition, p38α [4, 10]: -4% |
